Experiments:
Gibco hiPSCs = assay: LPM differentiation assay (FOXF1 high content imaging), Gibco hiPSCs; conditions: Homo sapiens, 48 h, read-out: IC50 (±SEM) in LPM differentiation assay
Experimental: (§8) hiPSCs (Gibco or XCL-1 clones) were grown in mTeSR-1 on Matrigel, passaged into small clumps with Versene (4.5 min under normal culture conditions), counted as a single-cell suspension as described above, and seeded as small clumps at approximately 10,000 cells/well (30,000 cells/cm^2, ~15% confluence) in 100 µL mTeSR1 on Matrigel-coated µClear® 96-well plates (Greiner) for 1 d under normal culture conditions. On the day after seeding, the medium was replaced with 100 µL/well of mTeSR-1 (control) or APEL2 + GSKi containing either DMSO or diluted compounds (for a final DMSO concentration of 0.2%). The same conditions were replenished the following day for a total of 2 d of differentiation, and the following day (3 d after seeding), the medium was aspirated, and hiPSCs were fixed in 10% NBF for 15 min at room temperature.
(§9) Immunofluorescence staining was carried out by fixing/permeabilizing cells overnight in blocking buffer containing 3% BSA (Sigma) in DPBS-T, which contains DPBS + Ca^2+//Mg^2+ with 0.3% Triton-X100 (Sigma). Fixed and permeabilized cells were incubated in primary antibodies diluted (as noted in Table 1) in antibody buffer, consisting of 1% BSA in DPBS-T, overnight at 4 °C.
(§10) Cells were washed in blocking buffer for >6 hours at 4 °C and subsequently incubated in secondary antibody diluted in antibody buffer overnight at 4 °C. Secondary antibodies were washed out in antibody buffer for >4 h at 4 °C, and hiPSCs were counterstained with DAPI (Fisher) at 10 µg/mL in DPBS-T for 2 h. hiPSCs were washed in DPBS-T for >2 h at 4 °C, and immediately before imaging, the DPBS-T was replaced with DPBS. […] Chemical dose-response experiments and experiments examining the time-course of marker expression during LPM differentiation were imaged at 10X magnification using the Cellomics ArrayScan or CellInsight Cx7 LZR High Content Screening Platform and HCS Studio Cell Analysis Software (Thermo Fisher). An artificial threshold was uniformly applied to all images to generate the percentage of DAPI+ nuclei that stained positively for FOXF1 or NANOG. Thresholding for FOXF1 and T was performed relative to undiffer-entiated hiPSCs, and thresholding for SALL4 and OCT4 was performed relative to a non-expressing cell type (human primary endothelial cells). Settings for image acquisition and processing were uniformly applied between XCL-1 clones. […] Experiments were repeated in quadruplicate unless otherwise stated, and data are presented as mean ± SEM. Nonlinear regression analysis was performed using the 4-parameter [inhibitor]-vs-response curve fitting algorithm in Prism (GraphPad).

XCL-1 hiPSC SALL4^G416A [1] = assay: LPM differentiation assay (FOXF1 high content imaging), XCL-1 SALL4^G416A clone; conditions: for IC50: Homo sapiens, 48 h, read-out: IC50 (±SEM) in LPM differentiation assay
Experimental: as §8, §9, §10
In addition, XCL-1 hiPSCs were engineered with CRISPR/Cas9 to express a homozygous SALL4 G416A mutation (hereafter referred to as the SALL4^G416A clone), and the homozygous SALL4 G416A mutation was confirmed by next-generation sequencing (Supplementary Fig. 2).

XCL-1 hiPSC SALL4 Mock [2] = assay: LPM differentiation assay (FOXF1 high content imaging), XCL-1 SALL4 Mock clone; conditions: Homo sapiens, 48 h, read-out: IC50 (±SEM) in LPM differentiation assay
Experimental: as §8, §9, §10

XCL-1 hiPSC CRBN Mock [3] = assay: LPM differentiation assay (FOXF1 high content imaging), XCL-1 CRBN Mock clone; format: cell-based; conditions: Homo sapiens, 48 h, % FOXF1+ cells after 2 d in APEL2+GSKi, read-out: IC50 (±SEM) in LPM differentiation assay
Experimental: On the day after seeding, the medium was replaced with 100 µL/well of mTeSR-1 (control) or APEL2 + GSKi containing either DMSO or diluted compounds (for a final DMSO concentration of 0.2%). The same conditions were replenished the following day for a total of 2 d of differentiation, and the following day (3 d after seeding), the medium was aspirated, and hiPSCs were fixed in 10% NBF for 15 min at room temperature.
as §9, §10

XCL-1 hiPSC CRBN KO/KI [4] = assay: LPM differentiation assay (FOXF1 high content imaging), XCL-1 CRBN KO/KI clone; format: cell-based, human; conditions: for IC50: Homo sapiens, 48 h, XCL-1 CRBN KO/KI, % FOXF1+ cells after 2 d in APEL2+GSKi, read-out: IC50 (±SEM) in LPM differentiation assay
Experimental: On the day after seeding, the medium was replaced with 100 µL/well of mTeSR-1 (control) or APEL2 + GSKi containing either DMSO or diluted compounds (for a final DMSO concentration of 0.2%). The same conditions were replenished the following day for a total of 2 d of differentiation, and the following day (3 d after seeding), the medium was aspirated, and hiPSCs were fixed in 10% NBF for 15 min at room temperature. For time-course experiments, cells were fixed at the specified intervals after the start of LPM differentiation.
as §9
Cells were washed in blocking buffer for >6 hours at 4 °C and subsequently incubated in secondary antibody diluted in antibody buffer overnight at 4 °C. Secondary antibodies were washed out in antibody buffer for >4 h at 4 °C, and hiPSCs were counterstained with DAPI (Fisher) at 10 µg/mL in DPBS-T for 2 h. hiPSCs were washed in DPBS-T for >2 h at 4 °C, and immediately before imaging, the DPBS-T was replaced with DPBS. Initial characterization of LPM differentiation by immunofluorescence was carried out using the A1R confocal microscope (Nikon) equipped with 10X objective, and automated object analysis was carried out using NIS Elements v5 software (Nikon). Chemical dose-response experiments and experiments examining the time-course of marker expression during LPM differentiation were imaged at 10X magnification using the Cellomics ArrayScan or CellInsight Cx7 LZR High Content Screening Platform and HCS Studio Cell Analysis Software (Thermo Fisher). An artificial threshold was uniformly applied to all images to generate the percentage of DAPI+ nuclei that stained positively for FOXF1 or NANOG. Thresholding for FOXF1 and T was performed relative to undiffer-entiated hiPSCs, and thresholding for SALL4 and OCT4 was performed relative to a non-expressing cell type (human primary endothelial cells). Settings for image acquisition and processing were uniformly applied between XCL-1 clones. The capacity of all XCL-1 clones and Gibco hiPSCs to undergo LPM differentiation in the high content format was assessed by FOXF1 and NANOG immunostaining. […] Experiments were repeated in quadruplicate unless otherwise stated, and data are presented as mean ± SEM. Nonlinear regression analysis was performed using the 4-parameter [inhibitor]-vs-response curve fitting algorithm in Prism (GraphPad).
Using CRISPR/Cas9-mediated gene editing, both CRBN alleles were knocked out in XCL-1 hiPSCs cells, followed by the insertion at the AAVS1 locus of a transgene encoding human CRBN with E377V and V388I mutations (clone hereafter referred to as CRBN KO/KI).

SALL4 [5] = target: T1, SALL4 (Homo sapiens, UniProt Q96SW2+Q9UJQ4); assay: SALL4 MFI by high content imaging, XCL-1 SALL4 mock hiPSCs; format: cell-based; conditions: SALL4 mock control hiPSCs, 8 h of treatment
T1 construct: Unmodified Gibco hiPSCs were either differentiated in APEL2 + GSKi or maintained in mTeSR1, and SALL4 nuclear protein expression was monitored; endogenous in cells; host or cells: Gibco hiPSCs; XCL-1 SALL4 mock hiPSC clone
Description: (§1) High content imaging analysis of SALL4 immunofluorescence with DAPI counterstaining in hiPSCs. […] Data represent the mean +/− SEM from 2 independent experiments.

SALL4 [6] = target: T1, SALL4; assay: SALL4 nuclear protein expression (MFI) by high content imaging, Gibco hiPSCs; format: cell-based
Description: as §1

human SALL4 = target: T2, human SALL4 (Homo sapiens, UniProt Q9UJQ4); assay: Immunoblot of SALL4 degradation in Lenti-x 293 CRBN-/- cells expressing human CRBN variants; format: cell-based
T2 construct: expressed in transfected cells; host or cells: Lenti-x 293 CRBN CRISPR KO (CRBN-/-) cells stably expressing human SALL4, transiently transfected with FLAG-CRBN variants
Description: SALL4 were transiently transfected with vectors expressing GFP or human CRBN variants and treated with
CRBN-/- cells transfected with empty vector were used as a negative control. The cells were then lysed and
characterized by immunoblotting analysis for SALL4, ZFP91, GFP, CRBN, and β-actin.
CRBN CRISPR KO (CRBN -/-) cells were maintained in Dulbecco’s Modified Eagle’s medium (DMEM;
Invitrogen) supplemented with 10% fetal bovine serum (FBS; Invitrogen). All cell lines were confirmed
mycoplasma-negative using the MycoAlert Mycoplasma Detection Kit (Lonza).
CRBN-/- cells stably expressing human SALL4 was transiently transfected with 4 µg of pcDNA3-GFP, pcDNA3-
FLAG-CRBN WT (isoform 1),pcDNA3-FLAG-CRBN E377V (isoform 1) or pcDNA3-FLAG-CRBN V388I (isoform
Cells were then harvested and lysed, and
whole cell extract was subjected to immunoblotting analysis. Cells were washed with ice-cold 1X PBS and
lysed in 50mM Tris-HCl [pH 7.6], 150 mM NaCl, 1% Triton X-100, and 1x Complete ULTRA protease inhibitor
cocktail and PhosSTOP phosphatase inhibitor cocktail. Whole cell extracts were collected after
centrifugation at top speed for 10 minutes, resolved by sodium dodecyl sulfate polyacrylamide gel
electrophoresis, transferred onto a nitrocellulose membrane using the Turboblot system (Bio-Rad), and
probed with the indicated primary antibodies. Bound antibodies were detected with IRDye®-680 or -800 […]

SALL4^G416A = target: T3, SALL4^G416A (Homo sapiens, UniProt Q9UJQ4, G416A); assay: SALL4 MFI by high content imaging, XCL-1 SALL4^G416A hiPSCs; format: cell-based; conditions: SALL4^G416A hiPSC clone, 8 h of treatment
T3 construct: parental hiPSCs were engineered to express a homozygous G416A mutation in the endogenous SALL4 locus; endogenous in cells; host or cells: XCL-1 SALL4^G416A hiPSC clone (1E6), CRISPR/Cas9 knock-in at the endogenous locus
Description: as §1

XCL-1 hiPSC CRBN Mock [7] = assay: cells; format: cell-based; conditions: Homo sapiens, 72 h; XCL-1 CRBN Mock; 3 d differentiation; read-out: IC50 (±SEM) in SOX17 differentiation assay
Experimental: (§2) The assay was carried out as previously described with continuous dosing of chemical for 3 total days of differentiation. SOX17 staining and DAPI counter-staining were carried out as described, and assays were imaged via high content imaging. […]
(§3) Supplementary Figure 7. Dose-response characterization of the influence […]
(§4) of XCL-1 clones. High content imaging analysis of XCL-1 hiPSC clones that were differentiated for 3 days in the presence of compound and subsequently stained for SOX17 and counter-stained with DAPI. Untreated DMSO control is omitted. Data represent the mean +/- SEM %SOX17 cells
(§5) (relative to control) from 4 independent experiments. Nonlinear regression […]
(§6) variable slope plotting tool in GraphPad Prism. A-C: Dose-response […]
(§7) in cereblon mock (hollow circles) or CRBN KO/KI (red filled circles) clones. D- […]

XCL-1 hiPSC SALL4 Mock [8] = assay: cells; format: cell-based; conditions: Homo sapiens, 72 h; XCL-1 SALL4 Mock; 3 d differentiation; read-out: IC50 (±SEM) in SOX17 differentiation assay
Experimental: as §2, §3, §4, §5, §6, §7

XCL-1 hiPSC SALL4^G416A [9] = assay: cells; format: cell-based; conditions: Homo sapiens, 72 h; XCL-1 SALL4^G416A; 3 d differentiation; read-out: IC50 (±SEM) in SOX17 differentiation assay
Experimental: as §2, §3, §4, §5, §6, §7

XCL-1 hiPSC CRBN KO/KI [10] = assay: cells; format: cell-based; conditions: Homo sapiens, 72 h; XCL-1 CRBN KO/KI; 3 d differentiation; read-out: IC50 (±SEM) in SOX17 differentiation assay
Experimental: as §2, §3, §4, §5, §6, §7

T1 sequence (Q9UJQ4 whole entry): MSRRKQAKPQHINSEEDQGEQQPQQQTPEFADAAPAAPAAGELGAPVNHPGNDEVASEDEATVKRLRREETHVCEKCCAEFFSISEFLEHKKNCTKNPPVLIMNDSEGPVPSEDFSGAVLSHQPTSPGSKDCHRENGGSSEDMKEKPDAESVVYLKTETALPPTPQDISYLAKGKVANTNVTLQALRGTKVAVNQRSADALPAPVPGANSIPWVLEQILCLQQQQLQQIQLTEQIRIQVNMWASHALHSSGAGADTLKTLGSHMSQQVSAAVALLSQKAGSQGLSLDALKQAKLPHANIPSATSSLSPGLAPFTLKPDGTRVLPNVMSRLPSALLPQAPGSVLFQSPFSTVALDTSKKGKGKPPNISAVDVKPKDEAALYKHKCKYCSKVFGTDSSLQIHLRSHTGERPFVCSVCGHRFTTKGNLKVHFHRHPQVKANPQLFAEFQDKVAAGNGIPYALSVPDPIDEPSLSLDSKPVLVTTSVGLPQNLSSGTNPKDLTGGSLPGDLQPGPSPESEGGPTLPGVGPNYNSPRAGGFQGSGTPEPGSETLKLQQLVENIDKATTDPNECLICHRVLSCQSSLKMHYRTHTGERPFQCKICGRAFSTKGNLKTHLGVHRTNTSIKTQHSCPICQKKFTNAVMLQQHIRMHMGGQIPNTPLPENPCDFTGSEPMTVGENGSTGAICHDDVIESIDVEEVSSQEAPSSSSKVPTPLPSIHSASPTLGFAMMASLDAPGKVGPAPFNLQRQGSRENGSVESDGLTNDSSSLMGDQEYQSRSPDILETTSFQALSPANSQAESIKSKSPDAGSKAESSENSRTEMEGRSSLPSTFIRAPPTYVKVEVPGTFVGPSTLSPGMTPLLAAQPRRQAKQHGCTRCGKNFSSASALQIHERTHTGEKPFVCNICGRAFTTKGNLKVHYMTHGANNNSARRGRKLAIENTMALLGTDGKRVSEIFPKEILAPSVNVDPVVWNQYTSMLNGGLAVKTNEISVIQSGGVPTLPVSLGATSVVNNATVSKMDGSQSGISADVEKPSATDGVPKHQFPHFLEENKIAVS
T1 sequence (Q96SW2 whole entry): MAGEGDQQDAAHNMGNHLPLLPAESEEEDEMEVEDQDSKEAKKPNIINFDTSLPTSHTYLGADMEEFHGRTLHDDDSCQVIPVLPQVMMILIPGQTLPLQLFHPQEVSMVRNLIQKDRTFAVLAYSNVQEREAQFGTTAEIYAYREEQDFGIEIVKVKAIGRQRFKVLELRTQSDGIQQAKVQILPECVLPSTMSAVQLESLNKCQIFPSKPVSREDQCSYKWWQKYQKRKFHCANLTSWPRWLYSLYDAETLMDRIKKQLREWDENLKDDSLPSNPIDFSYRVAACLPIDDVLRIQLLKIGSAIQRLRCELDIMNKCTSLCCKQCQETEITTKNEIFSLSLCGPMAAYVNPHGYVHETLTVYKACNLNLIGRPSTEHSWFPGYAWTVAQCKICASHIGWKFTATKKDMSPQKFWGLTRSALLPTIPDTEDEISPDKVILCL
T1 sequence (Q16531 whole entry partner): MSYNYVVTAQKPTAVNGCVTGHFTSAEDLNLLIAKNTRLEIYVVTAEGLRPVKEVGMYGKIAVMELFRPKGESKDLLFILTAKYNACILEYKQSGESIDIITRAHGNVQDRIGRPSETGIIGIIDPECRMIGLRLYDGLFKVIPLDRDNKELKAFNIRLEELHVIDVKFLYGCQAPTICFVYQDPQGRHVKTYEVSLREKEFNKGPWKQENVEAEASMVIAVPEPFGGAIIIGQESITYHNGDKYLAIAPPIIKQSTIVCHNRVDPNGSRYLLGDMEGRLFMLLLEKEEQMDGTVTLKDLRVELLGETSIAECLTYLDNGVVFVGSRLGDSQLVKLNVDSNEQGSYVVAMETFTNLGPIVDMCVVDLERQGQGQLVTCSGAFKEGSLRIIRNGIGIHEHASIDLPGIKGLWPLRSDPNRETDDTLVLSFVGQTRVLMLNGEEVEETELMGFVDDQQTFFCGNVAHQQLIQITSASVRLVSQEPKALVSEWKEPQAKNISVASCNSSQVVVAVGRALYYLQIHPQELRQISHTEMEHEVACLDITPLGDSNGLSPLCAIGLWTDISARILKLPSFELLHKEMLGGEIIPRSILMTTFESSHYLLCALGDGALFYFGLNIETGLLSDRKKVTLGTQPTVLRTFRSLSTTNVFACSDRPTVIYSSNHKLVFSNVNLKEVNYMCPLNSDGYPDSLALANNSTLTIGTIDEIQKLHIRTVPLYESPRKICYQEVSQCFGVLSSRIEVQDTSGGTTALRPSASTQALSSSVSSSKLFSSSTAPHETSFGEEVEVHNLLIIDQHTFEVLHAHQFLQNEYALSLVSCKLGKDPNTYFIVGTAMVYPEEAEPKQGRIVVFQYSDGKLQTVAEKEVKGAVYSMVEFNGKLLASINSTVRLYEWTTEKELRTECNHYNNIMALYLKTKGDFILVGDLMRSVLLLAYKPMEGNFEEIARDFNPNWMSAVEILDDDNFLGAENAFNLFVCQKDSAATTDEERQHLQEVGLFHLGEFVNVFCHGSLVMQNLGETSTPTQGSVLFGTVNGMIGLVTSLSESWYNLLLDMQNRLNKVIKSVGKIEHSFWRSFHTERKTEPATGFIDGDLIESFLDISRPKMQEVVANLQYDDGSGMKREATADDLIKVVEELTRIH
T2 sequence (Q96SW2 whole entry partner): as the sequence (Q96SW2 whole entry) above
T2 sequence (Q16531 whole entry partner): as the sequence (Q16531 whole entry partner) above
T2 sequence (Q9UJQ4 whole entry): as the sequence (Q9UJQ4 whole entry) above
T3 sequence (Q96SW2 whole entry partner): as the sequence (Q96SW2 whole entry) above
T3 sequence (Q16531 whole entry partner): as the sequence (Q16531 whole entry partner) above
T3 sequence (Q9UJQ4 whole entry G416A): as the sequence (Q9UJQ4 whole entry) above, with G416A counted along it

IC50 (Gibco hiPSCs) [nM] | IC50 (XCL-1 hiPSC SALL4^G416A [1]) [nM] | IC50 (XCL-1 hiPSC CRBN KO/KI [4]) [nM] | effect on SALL4 MFI (SALL4 [5]) | magnitude of the decrease in SALL4 MFI (SALL4 [6]; Gibco hiPSCs, 8 h of treatment, dose-response) | SALL4 degradation in human cells expressing CRBN with the V388I mutation (human SALL4) | effect on SALL4 MFI (SALL4^G416A) | IC50 (XCL-1 hiPSC SALL4^G416A [9]) [nM] | IC50 (XCL-1 hiPSC CRBN KO/KI [10]) [nM] | Structure (SMILES) | IC50 (XCL-1 hiPSC SALL4 Mock [2]) [nM] | IC50 (XCL-1 hiPSC CRBN Mock [3]) [nM] | time-course of SALL4 MFI (SALL4 [6]; 20 µM, Gibco hiPSCs in mTeSR1 or APEL2+GSKi, 2, 8 and 24 h after dosing) | inhibition of LPM differentiation at the two highest concentrations tested (XCL-1 hiPSC SALL4^G416A [1]; SALL4^G416A clone) | inhibition of LPM differentiation at the highest concentration tested (XCL-1 hiPSC CRBN KO/KI [4]; 50 µM, CRBN KO/KI clone) | IC50 (XCL-1 hiPSC CRBN Mock [7]) [nM] | IC50 (XCL-1 hiPSC SALL4 Mock [8]) [nM]
160 ± 80 | – | – | – | – | – | – | – | – | Nc1cccc2c1CN(C1CCC(=O)NC1=O)C2=O (stereo not shown) [Lenalidomide, lenalidomide] | – | – | – | – | – | – | –
2760 ± 5580 | 510 ± 100 | 790 ± 400 | – | – | – | – | – | – | NC(=O)c1ccc(-c2nc(-c3ccc4c(c3)OCO4)c(-c3ccccn3)[nH]2)cc1 [SB431542] | 630 ± 170 | 650 ± 180 | – | – | – | – | –
10 ± 10 | > 50000 | > 50000 | potently reduced SALL4 MFI | ~ 55% | failed to induce SALL4 degradation | unchanged | > 50000 | > 50000 | Nc1cccc2c1C(=O)N(C1CCC(=O)NC1=O)C2=O (stereo not shown) [Pomalidomide, pomalidomide] | 90 ± 90 | 20 ± 10 | rapid decline in SALL4 MFI 2 h after dosing | modest inhibition of LPM differentiation | inhibited LPM differentiation albeit not to the same magnitude as control hiPSCs | 20 ± 20 | 10 ± 10

From paper PMC7046148 (Scientific Reports, 2020)
